In ChEMBL document CHEMBL1201861, “Genomics of Drug Sensitity in Cancer screening data, Wellcome Trust Sanger Institute”:

How the values were obtained:
Assay in all cases: cells
UACC-257 = format: functional, cell-based, Homo sapiens; settings: Homo sapiens, UACC-257
Description: SANGER: Inhibition of human UACC-257 cell growth in a cell viability assay.

BT-474 = format: functional, cell-based, Homo sapiens; settings: Homo sapiens, BT-474
Description: SANGER: Inhibition of human BT-474 cell growth in a cell viability assay.

COLO-320-HSR = format: functional, cell-based, Homo sapiens; settings: Homo sapiens, COLO-320-HSR
Description: SANGER: Inhibition of human COLO-320-HSR cell growth in a cell viability assay.

DMS-114 = format: functional, cell-based, Homo sapiens; settings: Homo sapiens, DMS-114
KM-H2 = format: functional, cell-based, Homo sapiens; settings: Homo sapiens, KM-H2
Description: SANGER: Inhibition of human KM-H2 cell growth in a cell viability assay.

SNU1 = format: functional, cell-based, Homo sapiens; settings: Homo sapiens, SNU1
Description: SANGER: Inhibition of human NCI-SNU-1 cell growth in a cell viability assay.

NCI-N87 = format: functional, cell-based; settings: Homo sapiens
Description: SANGER: Inhibition of human NCI-N87 cell growth in a cell viability assay.

SNU-5 = format: functional, cell-based, Homo sapiens; settings: Homo sapiens, SNU-5
Description: SANGER: Inhibition of human NCI-SNU-5 cell growth in a cell viability assay.

D-247MG = format: functional, cell-based; settings: Homo sapiens
Description: SANGER: Inhibition of human D-247MG cell growth in a cell viability assay.

IST-SL1 = format: functional, cell-based, Homo sapiens; settings: Homo sapiens, IST-SL1
Description: SANGER: Inhibition of human IST-SL1 cell growth in a cell viability assay.

J-RT3-T3-5 = format: functional, cell-based, Homo sapiens; settings: Homo sapiens, J-RT3-T3-5
Description: SANGER: Inhibition of human J-RT3-T3-5 cell growth in a cell viability assay.

NOMO-1 = format: functional, cell-based, Homo sapiens; settings: Homo sapiens, NOMO-1
Description: SANGER: Inhibition of human NOMO-1 cell growth in a cell viability assay.

PSN1 = format: functional, cell-based, Homo sapiens; settings: Homo sapiens, PSN1
Description: SANGER: Inhibition of human PSN1 cell growth in a cell viability assay.

C8166 = format: functional, cell-based, Homo sapiens; settings: Homo sapiens, C8166
Description: SANGER: Inhibition of human C8166 cell growth in a cell viability assay.

GAK = format: functional, cell-based, Homo sapiens; settings: Homo sapiens, GAK
Description: SANGER: Inhibition of human GAK cell growth in a cell viability assay.

DOHH-2 = format: functional, cell-based, Homo sapiens; settings: Homo sapiens, DOHH-2
Description: SANGER: Inhibition of human DOHH-2 cell growth in a cell viability assay.

TE-8 = format: functional, cell-based, Homo sapiens; settings: Homo sapiens, TE-8
Description: SANGER: Inhibition of human TE-8 cell growth in a cell viability assay.

U-87 MG = format: functional, cell-based, Homo sapiens, U-87MG ATCC; settings: Homo sapiens, U-87 MG
Description: SANGER: Inhibition of human U-87-MG cell growth in a cell viability assay.

DU-4475 = format: functional, cell-based, Homo sapiens; settings: Homo sapiens, DU-4475
Description: SANGER: Inhibition of human DU-4475 cell growth in a cell viability assay.

A704 = format: functional, cell-based; settings: Homo sapiens
Description: SANGER: Inhibition of human A704 cell growth in a cell viability assay.

HEL = format: functional, cell-based, Homo sapiens; settings: Homo sapiens, HEL
Description: SANGER: Inhibition of human HEL cell growth in a cell viability assay.

RS4-11 = format: functional, cell-based, Homo sapiens; settings: Homo sapiens, RS4-11
Description: SANGER: Inhibition of human RS4-11 cell growth in a cell viability assay.

SK-NEP-1 = format: functional, cell-based, Homo sapiens; settings: Homo sapiens, SK-NEP-1
Description: SANGER: Inhibition of human SK-NEP-1 cell growth in a cell viability assay.

NCI-H69 = format: functional, cell-based, Homo sapiens; settings: Homo sapiens, NCI-H69
Description: SANGER: Inhibition of human NCI-H69 cell growth in a cell viability assay.

L-428 = format: functional, cell-based, Homo sapiens; settings: Homo sapiens, L-428
Description: SANGER: Inhibition of human L-428 cell growth in a cell viability assay.

NKM-1 = format: functional, cell-based, Homo sapiens; settings: Homo sapiens, NKM-1
Description: SANGER: Inhibition of human NKM-1 cell growth in a cell viability assay.

DEL = format: functional, cell-based, Homo sapiens; settings: Homo sapiens, DEL
Description: SANGER: Inhibition of human DEL cell growth in a cell viability assay.

RKO = format: functional, cell-based, Homo sapiens; settings: Homo sapiens, RKO
Description: SANGER: Inhibition of human RKO cell growth in a cell viability assay.

LXF-289 cell line = format: functional, cell-based; settings: Homo sapiens
Description: SANGER: Inhibition of human LXF-289 cell growth in a cell viability assay.

CTV-1 = format: functional, cell-based, Homo sapiens; settings: Homo sapiens, CTV-1
Description: SANGER: Inhibition of human CTV-1 cell growth in a cell viability assay.

HCE-4 = format: functional, cell-based; settings: Homo sapiens
Description: SANGER: Inhibition of human HCE-4 cell growth in a cell viability assay.

CGTH-W-1 = format: functional, cell-based, Homo sapiens; settings: Homo sapiens, CGTH-W-1
Description: SANGER: Inhibition of human CGTH-W-1 cell growth in a cell viability assay.

Becker = format: functional, cell-based, Homo sapiens; settings: Homo sapiens, Becker
Description: SANGER: Inhibition of human Becker cell growth in a cell viability assay.

ATN-1 = format: functional, cell-based, Homo sapiens; settings: Homo sapiens, ATN-1
Description: SANGER: Inhibition of human ATN-1 cell growth in a cell viability assay.

SNU-C2B = format: functional, cell-based; settings: Homo sapiens
Description: SANGER: Inhibition of human SNU-C2B cell growth in a cell viability assay.

U-266 = format: functional, cell-based, Homo sapiens; settings: Homo sapiens, U-266
Description: SANGER: Inhibition of human U-266 cell growth in a cell viability assay.

COLO-800 = format: functional, cell-based, Homo sapiens; settings: Homo sapiens, COLO-800
Description: SANGER: Inhibition of human COLO-800 cell growth in a cell viability assay.

NEC8 = format: functional, cell-based, Homo sapiens; settings: Homo sapiens, NEC8
Description: SANGER: Inhibition of human NEC8 cell growth in a cell viability assay.

NB10 = format: functional, cell-based, Homo sapiens; settings: Homo sapiens, NB10
Description: SANGER: Inhibition of human NB10 cell growth in a cell viability assay.

NCI-H1092 = format: functional, cell-based, Homo sapiens; settings: Homo sapiens, NCI-H1092
Description: SANGER: Inhibition of human NCI-H1092 cell growth in a cell viability assay.

EW-13 = format: functional, cell-based, Homo sapiens; settings: Homo sapiens, EW-13; read-out: IC50
Description: SANGER: Inhibition of human EW-13 cell growth in a cell viability assay.

OVCAR-4 = format: functional, cell-based, Homo sapiens; settings: Homo sapiens, OVCAR-4
Description: SANGER: Inhibition of human OVCAR-4 cell growth in a cell viability assay.

A498 = format: functional, cell-based, Homo sapiens; settings: Homo sapiens, A498
Description: SANGER: Inhibition of human A498 cell growth in a cell viability assay.

COLO-684 = format: functional, cell-based, Homo sapiens; settings: Homo sapiens, COLO-684
Description: SANGER: Inhibition of human COLO-684 cell growth in a cell viability assay.

TK-10 = format: functional, cell-based, Homo sapiens; settings: Homo sapiens, TK-10
Description: SANGER: Inhibition of human TK10 cell growth in a cell viability assay.

COLO-829 = format: functional, cell-based, Homo sapiens; settings: Homo sapiens, COLO-829
Description: SANGER: Inhibition of human COLO-829 cell growth in a cell viability assay.

NCI-H526 = format: functional, cell-based, Homo sapiens; settings: Homo sapiens, NCI-H526
Description: SANGER: Inhibition of human NCI-H526 cell growth in a cell viability assay.

NCI-H1770 = format: functional, cell-based, Homo sapiens; settings: Homo sapiens, NCI-H1770
Description: SANGER: Inhibition of human NCI-H1770 cell growth in a cell viability assay.

LS-411N = format: functional, cell-based, Homo sapiens; settings: Homo sapiens, LS-411N
D283 Med = format: functional, cell-based, Homo sapiens; settings: Homo sapiens, D283 Med
Description: SANGER: Inhibition of human D-283MED cell growth in a cell viability assay.

## CC1(C)CCC(c2ccc(Cl)cc2)=C(CN2CCN(c3ccc(C(=O)NS(=O)(=O)c4ccc(N[C@H](CCN5CCOCC5)CSc5ccccc5)c(S(=O)(=O)C(F)(F)F)c4)cc3)CC2)C1 [NAVITOCLAX]
UACC-257
  IC50: > 2000 nM
BT-474
  IC50: > 2000 nM
COLO-320-HSR
  IC50: > 2000 nM
DMS-114
  IC50: > 2000 nM
KM-H2
  IC50: > 2000 nM
SNU1
  IC50: 1370 nM
NCI-N87
  IC50: > 2000 nM
SNU-5
  IC50: > 2000 nM
D-247MG
  IC50: 1510 nM
IST-SL1
  IC50: 353 nM
J-RT3-T3-5
  IC50: 608 nM
NOMO-1
  IC50: > 2000 nM
PSN1
  IC50: > 2000 nM
C8166
  IC50: > 2000 nM
GAK
  IC50: > 2000 nM
DOHH-2
  IC50: 410 nM
TE-8
  IC50: > 2000 nM
U-87 MG
  IC50: > 2000 nM
DU-4475
  IC50: 654 nM
A704
  IC50: 427 nM
HEL
  IC50: 1310 nM
RS4-11
  IC50: 25.9 nM
SK-NEP-1
  IC50: 72.1 nM
NCI-H69
  IC50: > 2000 nM
L-428
  IC50: 1010 nM
NKM-1
  IC50: 17 nM
DEL
  IC50: 1750 nM
RKO
  IC50: > 2000 nM
LXF-289 cell line
  IC50: > 2000 nM
CTV-1
  IC50: > 2000 nM
HCE-4
  IC50: > 2000 nM
CGTH-W-1
  IC50: > 2000 nM
Becker
  IC50: > 2000 nM
ATN-1
  IC50: 47.3 nM
SNU-C2B
  IC50: > 2000 nM
U-266
  IC50: > 2000 nM
COLO-800
  IC50: > 2000 nM
NEC8
  IC50: > 2000 nM
NB10
  IC50: > 2000 nM
NCI-H1092
  IC50: 103 nM
EW-13
  IC50: 583 nM
OVCAR-4
  IC50: > 2000 nM
A498
  IC50: > 2000 nM
COLO-684
  IC50: > 2000 nM
TK-10
  IC50: > 2000 nM
COLO-829
  IC50: > 2000 nM
NCI-H526
  IC50: > 2000 nM
NCI-H1770
  IC50: > 2000 nM
LS-411N
  IC50: > 2000 nM
D283 Med
  IC50: 177 nM

## Cc1ccc(-n2nc(C(C)(C)C)cc2NC(=O)Nc2ccc(OCCN3CCOCC3)c3ccccc23)cc1 [DORAMAPIMOD]
UACC-257
  IC50: […]
BT-474
  IC50: […]
COLO-320-HSR
  IC50: […]
DMS-114
  IC50: […]
KM-H2
  IC50: […]
SNU1
  IC50: 9070 nM
NCI-N87
  IC50: […]
SNU-5
  IC50: […]
D-247MG
  IC50: […]
IST-SL1
  IC50: […]
J-RT3-T3-5
  IC50: […]
NOMO-1
  IC50: […]
PSN1
  IC50: […]
C8166
  IC50: […]
GAK
  IC50: […]
DOHH-2
  IC50: […]
TE-8
  IC50: […]
U-87 MG
  IC50: […]
DU-4475
  IC50: […]
A704
  IC50: […]
HEL
  IC50: […]
RS4-11
  IC50: […]
SK-NEP-1
  IC50: […]
NCI-H69
  IC50: […]
L-428
  IC50: […]
NKM-1
  IC50: […]
DEL
  IC50: […]
RKO
  IC50: […]
LXF-289 cell line
  IC50: […]
CTV-1
  IC50: […]
HCE-4
  IC50: […]
CGTH-W-1
  IC50: […]
Becker
  IC50: […]
ATN-1
  IC50: […]
SNU-C2B
  IC50: […]
U-266
  IC50: […]
COLO-800
  IC50: […]
NEC8
  IC50: […]
NB10
  IC50: […]
NCI-H1092
  IC50: […]
EW-13
  IC50: […]
OVCAR-4
  IC50: […]
A498
  IC50: […]
COLO-684
  IC50: […]
TK-10
  IC50: […]
COLO-829
  IC50: […]
NCI-H526
  IC50: […]
NCI-H1770
  IC50: […]
LS-411N
  IC50: […]
D283 Med
  IC50: […]
